Measurements: patent publication US9186342B2, “Combination of an NSAID and an amino acid” (LABORATORIOS SENOSIAIN S.A. DE C.V., priority 2010, dated 2015)

How the values were obtained:
[1] = cited from earlier work
[2] = tested on: pyresis induced by LPS from E. coli in rats; test: Anti-pyretic effect, pyresis model induced by LPS from E. coli; type: in vivo, rat; settings: 15 mg/Kg, from the first 60 minutes
Description: After the assessment of the anti-nociceptive and anti-inflammatory effects, the anti-pyretic effect was assessed for increasing doses of the combination IBU:L-ARG in a ratio IBU/L-ARG=3.26, in comparison with the administration of an agent that is well known as capable of control fever, such as acetaminophen (15 mg/Kg) (see FIG. 5).

[3] = tested on: inflammation induced with carrageenan in rats; test: Anti-inflammatory effect, inflammation model by carrageenan; type: in vivo, rat; settings: 10 mg/Kg, each 8 hours, from the third hour
Description: From the results of the previous study, and following a model where inflammation is induced with carrageenan administration for generating a bruise, we determined the anti-inflammatory effect of the L-ARG-IBU combination, in comparison with the administration of a treatment of known effects (positive control: diclofenac 10 mg/Kg), and of a control group, administered each 8 hours for a period of 48 hours. This model presented a maximum inflammation level of towards 6-8 hours, after which inflammation starts to decrease gradually.

[4] = in vivo; cited from earlier work

Molecule: CC(C)Cc1ccc(C(C)C(=O)O)cc1 (stereo not shown) [Ibuprofen]
- solubility in water [1]: relatively insoluble in water

Molecule: CC(=O)Nc1ccc(O)cc1 [acetaminophen]
- temperature after drug administration [2]: temperature returned to basal levels

Molecule: O=C(O)Cc1ccccc1Nc1c(Cl)cccc1Cl [diclofenac]
- development of edema [3]: reduced the development of edema

Molecule: ibuprofen arginate
- onset of the analgesic action compared to ibuprofen alone [4]: fast onset of the analgesic action
